Laboratory results taken from patent US20080207617A1, “Quinoline Derivatives and Quinazoline Derivatives Inhibiting Autophosphrylation of Flt3 and Medicinal Compositions Containing the Same” (KIRIN BEER KABUSHIKI KAISHA, priority 2002, published 2008).
Structures can show the parent of a compound that is named as a salt. Where two headings read alike, the source gives them in different places.

Experiments:
[1] = test system: MOLM13; test: Cell growth inhibitory activity using MTT method (MOLM13); assay type: cell-based, human; settings: MOLM13 cells
Experimental: Pharmacological Test Example 3
Measurement of Cell Growth Inhibitory Activity Using MTT Method
Human leukemia cell line MOLM13 (subdivided from Hayashibara Biochemical Laboratories, Inc.) was cultured in an RPMI medium containing 10% fetal calf serum (purchased from Asahi Techno Glass Corporation) within a 5% carbon dioxide incubator until the cell density reached 50 to 90% of the maximum cell density. These cells were seeded into wells, containing an RPMI medium containing 10% fetal calf serum, in a 96-well flat bottom plate in an amount of […] per well. The amount of the solution of the medium in each well was brought to 100 μl, and a test compound was added thereto to 500 ng, 100 ng, 20 ng, and 4 ng per ml. After culture within an incubator for 72 hr, 10 μl of a 5 mg/ml MTT (3-(4,5-dimethylthiazol-2-yl)-2,5-diphenyl tetrazolium bromide) solution (purchased from SIGMA) was added to the medium, and a reaction was allowed to proceed for 4 hr. Thereafter, 100 μl of a 0.04 N hydrochloric acid-isopropanol solution was added to completely dissolve the resultant MTT formazan crystal. After the dissolution, absorbance at 550 nm was measured using 620 nm as a reference wavelength with a microplate reader (DIGISCAN) (It is regarded that, in the MTT method, the viable cell count is reflected, and linearity is observed in a cell count per well range of 5×10^5 to 2×10^2 cells). After 72 hr, the absorbance of only the medium free from cells was subtracted from the absorbance of the well without the addition of the test compound to determine a value which was presumed to be 100%. On the other hand, the absorbance with the addition of the compound was expressed in terms of % growth.

[2] = test system: MOLM13; test: Tumor growth inhibitory activities in nude mice xenograft model inoculated with human leukemia cells MOLM13; assay type: in vivo; settings: Mus musculus, MOLM-13, po, 50 mg/kg orally once a day, read-out: TGIR (%) (measurement date)
Experimental: Pharmacological Test Example 5
Tumor Growth Inhibitory Activities in Nude Mice Xenograft Model Inoculated with Human Leukemia Cells
Human leukemia cells MOLM13 (subdivided from Hayashibara Biochemical Laboratories, Inc.) were subcutaneously transplanted into nude mice. […] The test compound suspended or dissolved in 0.5% methylcellulose was orally administered at a dose of 0.1 ml per 10 g body weight once a day for 9 days. For the control group, only vehicle was administered.
The tumor growth inhibition rate (TGIR) was calculated as follows:
The tumor growth inhibition rate (TGIR)=(1−TX/CX)×100
wherein CX represents the volume of tumor at day X for the control group when the tumor volume at the day of the start of the administration (day 1) was presumed to be 1; and TX represents the volume of tumor at day X for test compound administration groups.

[3] = test system: MOLM13; test: Cell growth inhibitory activities on cultured human leukemia cells MOLM-13 (WST-1); assay type: cell-based; settings: 3 days culture
Experimental: Pharmacological Test Example 4
Cell Growth Inhibitory Activities on Cultured Human Leukemia Cells
(§1) Human leukemia cells MOLM13 (subdivided from Hayashibara Biochemical Laboratories, Inc.) were seeded in an amount of 3×10^3 using a DMEM medium containing 10% fetal calf serum (purchased from GIBCO) in a 96-well flat bottom plate. A solution of a test compound in dimethyl sulfoxide was added to each well and was cultured in a 5% carbon dioxide incubator for 3 days. Three days after the initiation of the culture, 10 μl of a WST-1 solution in Cell Counting Kit (purchased from Wako Pure Chemical Industries, Ltd.) was added to each well for a color reaction. After proper color development, the absorbance was measured with a microplate reader under conditions of measurement wavelength 450 nm and reference wavelength 650 nm. The growth ratio for each well was determined by presuming the absorbance without the addition of the medicament to be 100% growth ratio and the absorbance of the well without seeding of the cells to be 0% growth ratio. The concentration of the test compound was varied on several levels, the cell growth ratio for each case was determined, and the concentration of the test compound necessary for inhibiting 50% of cell growth ratio (IC50) was calculated.

[4] = test system: MV4-11; test: Cell growth inhibitory test MV4-11 (WST-1); assay type: cell-based, human; settings: MV4-11 cells, 3 days culture
Experimental: Pharmacological Test Example 2
Cell Growth Inhibitory Test
MV4-11 (ATCC number: CRL-9591) as human leukemia cells was seeded in an amount of 3×10^3 using a DMEM medium containing 10% fetal calf serum (purchased from GIBCO) in a 96-well flat bottom plate.
as §1, with “A” for “Human leukemia cells MOLM13 (subdivided from Hayashibara Biochemical Laboratories, Inc.) were seeded in an amount of 3×10^3 using a DMEM medium containing 10% fetal calf serum (purchased from GIBCO) in a 96-well flat bottom plate. A”

SMILES | IC50 ([1]; Homo sapiens, MOLM-13, 72 h) [nM] | IC50 ([3]; Homo sapiens, MOLM-13, 72 h) [nM] | IC50 ([4]; Homo sapiens, MV4-11, 72 h) [nM] | IC50 ([1]; 72 hr) [nM] | IC50 [3] [nM] | IC50 [4] [nM] | inhibition in vivo at 50 mg/kg ([2]; 240 h, day 10) [%] | inhibition in vivo at 50 mg/kg ([2]; 216 h, day 9) [%]
COc1cc2nccc(Oc3ccc(NC(=O)NC4CCCC(C)(C)C4)cc3Cl)c2cc1OC (stereo not drawn) [Compound 12, 1-[3-Chloro-4-(6,7-dimethoxy-quinolin-4-yloxy)-phenyl]-3-(3,3-dimethyl-cyclohexyl)-urea] | 5.37 | 6 | 5 | – | – | – | 93.7 | –
COc1cc2nccc(Oc3ccc(NC(=O)NC4CC(C)CC(C)(C)C4)cc3Cl)c2cc1OC (stereo not drawn) [Compound 13, 1-[3-Chloro-4-(6,7-dimethoxy-quinolin-4-yloxy)-phenyl]-3-(3,3,5-trimethyl-cyclohexyl)-urea] | 3.87 | 21 | 18 | – | – | – | 84.8 | –
COc1cc2nccc(Oc3ccc(NC(=O)NC4CCCC(C)(C)C4)cc3F)c2cc1OC (stereo not drawn) [Compound 14, 1-[4-(6,7-Dimethoxy-quinolin-4-yloxy)-3-fluoro-phenyl]-3-(3,3-dimethyl-cyclohexyl)-urea] | 5.13 | 3 | 2 | – | – | – | 96.1 | –
COc1cc2nccc(Oc3ccc(NC(=O)NC4CC(C)CC(C)(C)C4)cc3F)c2cc1OC (stereo not drawn) [Compound 15, 1-[4-(6,7-Dimethoxy-quinolin-4-yloxy)-3-fluoro-phenyl]-3-(3,3,5-trimethyl-cyclohexyl)-urea] | 9.5 | 22 | 11 | – | – | – | 89.4 | –
COc1cc2c(Oc3ccc(NC(=O)NCCC4CCCC4)c(F)c3)ccnc2cc1OCCN1CCCCC1 [Compound 65, 1-(2-Cyclopentyl-ethyl)-3-{2-fluoro-4-[6-methoxy-7-(2-piperidin-1-yl-ethoxy)-quinolin-4-yloxy]-phenyl}-urea] | 24.6 | 9 | 4 | – | – | – | – | –
COc1cc2c(Oc3ccc(NC(=O)NCCC(C)(C)C)c(F)c3)ccnc2cc1OCCN1CCOCC1 [Compound 67, 1-(3,3-Dimethyl-butyl)-3-{2-fluoro-4-[6-methoxy-7-(2-morpholin-4-yl-ethoxy)-quinolin-4-yloxy]-phenyl}-urea] | – | – | – | 16.1 | 4 | 2 | – | –
COc1cc2nccc(Oc3ccc(NC(=O)NCCC(C)(C)C)cc3)c2cc1OCCN1CCOCC1 [Compound 68, 1-(3,3-Dimethyl-butyl)-3-{4-[7-methoxy-6-(2-morpholin-4-yl-ethoxy)-quinolin-4-yloxy]-phenyl}-urea] | 13.3 | 1 | < 1 | – | – | – | – | –
COc1cc2c(Oc3ccc(NC(=O)NC4CCCC(C)(C)C4)c(F)c3)ccnc2cc1OCCN1CCOCC1 (stereo not drawn) [Compound 69, 1-(3,3-Dimethyl-cyclohexyl)-3-{2-fluoro-4-[6-methoxy-7-(2-morpholin-4-yl-ethoxy)-quinolin-4-yloxy]-phenyl}-urea] | 17.7 | 8 | 2 | – | – | – | – | –
COc1cc2c(Oc3ccc(NC(=O)NCCC(C)(C)C)c(F)c3)ccnc2cc1OCCCN1CCN(C)CC1 [Compound 76, 1-(3,3-Dimethyl-butyl)-3-(2-fluoro-4-{6-methoxy-7-[3-(4-methyl-piperazin-1-yl)-propoxy]-quinolin-4-yloxy}-phenyl)-urea] | – | – | – | – | – | – | – | 34.3
COc1cc2c(Oc3ccc(NC(=O)NCCC(C)(C)C)cc3Cl)ccnc2cc1OCCCN1CCN(C)CC1 [Compound 77, 1-(3,3-Dimethyl-butyl)-3-(3-chloro-4-{6-methoxy-7-[3-(4-methyl-piperazin-1-yl)-propoxy]-quinolin-4-yloxy}-phenyl)-urea] | – | – | – | – | – | – | – | 70.4

Further lines, with some results ahead:

IC50 ([1]; Homo sapiens, MOLM-13, 72 h) [nM] | IC50 ([3]; Homo sapiens, MOLM-13, 72 h) [nM] | IC50 ([4]; Homo sapiens, MV4-11, 72 h) [nM] | IC50 ([1]; 72 hr) [nM] | IC50 [3] [nM] | IC50 [4] [nM] | SMILES | inhibition in vivo at 50 mg/kg ([2]; 240 h, day 10) [%] | inhibition in vivo at 50 mg/kg ([2]; 216 h, day 9) [%]
29.6 | 3 | 2 | – | – | – | COc1cc2c(Oc3ccc(NC(=O)NCCC(C)(C)C)cc3Cl)ccnc2cc1OCCN1CC(C)OC(C)C1 (stereo not drawn) [Compound 70, 1-(3-Chloro-4-{7-[2-(2,6-dimethyl-morpholin-4-yl)-ethoxy]-6-methoxy-quinolin-4-yloxy}-phenyl)-3-(3,3-dimethyl-butyl)-urea] | – | –
54.5 | 8 | 3 | – | – | – | COc1cc2c(Oc3ccc(NC(=O)NCCC4CCCCC4)c(F)c3)ccnc2cc1OCCN1CCOCC1 [Compound 72, 1-(2-Cyclohexyl-ethyl)-3-{2-fluoro-4-[6-methoxy-7-(2-morpholin-4-yl-ethoxy)-quinolin-4-yloxy]-phenyl}-urea] | – | –
21.5 | 20 | 6 | – | – | – | COc1cc2c(Oc3ccc(NC(=O)NCCC(C)C)c(F)c3)ccnc2cc1OCCN1CCOCC1 [Compound 73, 1-{2-Fluoro-4-[6-methoxy-7-(2-morpholin-4-yl-ethoxy)-quinolin-4-yloxy]-phenyl}-3-(3-methyl-butyl)-urea] | – | –
– | < 1 | < 1 | – | – | – | COc1cc2c(Oc3ccc(NC(=O)NCCC(C)(C)C)cc3)ccnc2cc1OCCCN1CCN(C)CC1 [Compound 75, 1-(3,3-Dimethyl-butyl)-3-(4-{6-methoxy-7-[3-(4-methyl-piperazin-1-yl)-propoxy]-quinolin-4-yloxy}-phenyl)-urea hydrochloride] | – | 94.1
